From patent US6436420B1, “High performance silver (I,III) oxide antimicrobial textile articles” (Marantech Holding, LLC, priority 2000, dated 2002)

Experiments:
[1] = test system: Staphylococcus epidermidis 12228; conditions: Staphylococcus epidermidis 12228, Gram Positive; cited from earlier work
[2] = test system: Staphylococcus aureus 27543; conditions: Staphylococcus aureus 27543, Gram Positive; cited from earlier work
[3] = test system: Pseudomonas aeruginosa 9027; conditions: Pseudomonas aeruginosa 9027, Gram Negative; cited from earlier work
[4] = test system: Streptococcus agalactiae 27956; conditions: Streptococcus agalactiae 27956, Gram Positive; cited from earlier work
[5] = test system: Bacillus subtilis 6633; conditions: Bacillus subtilis 6633, Gram Positive; cited from earlier work
[6] = test system: Enterobacter cloacae 13047; conditions: Enterobacter cloacae 13047, Gram Negative; cited from earlier work
[7] = test system: very virulent strain of Staph; format: cell-based; conditions: calculated from inhibition zone being inversely proportional to MIC
From the text: (§1) An independent medical researcher in Israel obtained a very virulent strain of Staph from a patient at the Shaarei Tzedek Hospital in Jerusalem. […] This Staph strain was utilized as the Staph source, and the otherwise exact test protocol described above was repeated. […] Only one test swatch was used for the Staph evaluation.

[8] = test system: Streptococcus faecium 10541; conditions: Streptococcus faecium 10541, Gram Positive; cited from earlier work
[9] = test system: Saccharomyces cerevisiae 2601; conditions: Saccharomyces cerevisiae 2601, Yeast and Mold; cited from earlier work
[10] = test system: Escherichia coll 25254; conditions: Escherichia coll 25254, Gram Negative; cited from earlier work
[11] = test system: Micrococcus lutena 9341; conditions: Micrococcus lutena 9341, Gram Positive; cited from earlier work
[12] = test system: Escherichia coll 10231; conditions: Escherichia coll 10231, Gram Negative; cited from earlier work
[13] = test system: Candida albicans 16404; conditions: Candida albicans 16404, Yeast and Mold; cited from earlier work
[14] = test system: all Gram Negative bacteria listed in Table 1; conditions: same reasoning applied to PA marker
From the text: as §1

[15] = test system: all Gram positive bacteria listed in Table 1; conditions: extrapolated from virulent Staph result
From the text: as §1

[16] = test system: Streptococcus-pyogenes 7958; conditions: Streptococcus-pyogenes 7958, Gram Positive; cited from earlier work
[17] = test system: Staphylococcus aureus 0927; conditions: Staphylococcus aureus 0927, Gram Positive; cited from earlier work

## [Ag+].[Ag+].[Ag+].[Ag+].[O-2].[O-2].[O-2].[O-2] [Ag4O4, tetrasilver tetroxide]
[1]
  MIC (Minimal Inhibitory Concentration): 0.625 PPM
[2]
  MIC (Minimal Inhibitory Concentration): 5.00 PPM
[3]
  MIC (Minimal Inhibitory Concentration): 1.25-2.50 PPM
[4]
  MIC (Minimal Inhibitory Concentration): 1.25-5.00 PPM
[5]
  MIC (Minimal Inhibitory Concentration): 5.00 PPM
[6]
  MIC (Minimal Inhibitory Concentration): 2.50 PPM
[7]
  MIC for the virulent Staph strain: 40.5-61.0 PPM
[8]
  MIC (Minimal Inhibitory Concentration): 5.00 PPM
[9]
  MIC (Minimal Inhibitory Concentration): 1.25 PPM
[10]
  MIC (Minimal Inhibitory Concentration): 2.50 PPM
[11]
  MIC (Minimal Inhibitory Concentration): 1.25-2.50 PPM
[12]
  MIC (Minimal Inhibitory Concentration): 2.50 PPM
[13]
  MIC (Minimal Inhibitory Concentration): 2.50-5.0 PPM
[14]
  inhibition of all Gram Negative bacteria listed in Table 1: inhibition
[15]
  inhibition of all listed Gram positive bacteria: capable of inhibiting
[16]
  MIC (Minimal Inhibitory Concentration): 2.50 PPM
[17]
  MIC (Minimal Inhibitory Concentration): 2.50-5.00 PPM
